Test results taken from patent US20250270330A1, “TREATMENT OF HEADACHE DISORDERS WITH NK3 MODULATORS” (Kallyope, Inc., priority 2022, published 2025).

Columns and labels:
[1] = tested on: luteinizing hormone (LH); assay: Luteinizing hormone (LH) inhibition studies, serum LH by ELISA; format: in vivo, castrated male Sprague-Dawley rats; details: for reduction in LH levels: 100 mg/kg
Protocol: Studies measuring LH were performed on castrated male Sprague-Dawley rats. Briefly, animals were castrated through a midline scrotal incision using Zoletil® 50 as an anesthetic. Surgeries were performed at least 15 days before compound testing.
Serum was collected at baseline, then every 15 minutes starting from 30 minutes after PO […] dosing with vehicle, fezolinetant (30 mg/kg), or SB 235375 (30 and 100 mg/kg). Blood was collected from the jugular vein, transferred into 1.5-mL centrifuge tubes, and centrifuged at 8000 g for 15 minutes to separate the serum. Serum LH levels were determined using a rat luteinizing hormone ELISA kit (Colorimetric, Novus). The assays were performed following the manufacturer's protocol. Group sizes were from n=10 for the vehicle and SB 235375 groups and n=4 for fezolinetant.

[2] = tested on: rats with inflammatory soup-sensitized trigeminal ganglia; assay: In vivo migraine headache model: von Frey periorbital threshold after GTN challenge; parameters: species or system Sprague-Dawley rats
Protocol: Surgeries were performed as previously described in Oshinsky, M. L. & Gomonchareonsiri, S., Episodic dural stimulation in awake rats: a model for recurrent headache, 47 HEADACHE 1026-1036 (2007). Adult male Sprague-Dawley rats were habituated towards handling for 1-2 weeks before undergoing dural cannulation surgery under isoflurane anesthesia. Attention was given not to disturb the dura. A custom flange guide cannula (22GA, Plastics One) was inserted. The cannula was fixed to the bone with small screws and dental cement.
After 1-2 weeks of recovery from surgery, animals received supradural infusions of an inflammatory soup comprising 2 mM histamine, bradykinin, serotonin, 0.2 mM prostaglandin E2 under brief isoflurane anesthesia (1.5-3%) for 5 consecutive days (1/day) (i.e., the 5-day sensitization period).
The design was within-subjects with the same animals receiving multiple treatments in a crossover fashion with at least one week washout between each treatment. Evoked sensory testing for mechanical allodynia was done by von Frey periorbital threshold testing. Sensory testing occurred during the day using von Frey filaments with reproducible calibrated buckling forces varying from 0.4-10 g and utilizing the up-and-down method. See Dixon, W. J., The Up-and-Down Method for Small Samples, 60 J. AM. STAT. ASSOC., 967-978 (1965); Chaplan, S. R., Bach, F. W., Pogrel, J. W., Chung, J. M. & Yaksh, T. L., Quantitative assessment of tactile allodynia in the rat paw, 53 J. NEUROSCI. METHODS 55-63 (1994) (hereinafter “Chaplan 1994”). Based on the response pattern and the force of the final filament, the periorbital threshold (g) was calculated according to the prior art method set forth, e.g., in Chaplan 1994 and Bonin, R. P., Bories, C. & De Koninck, Y., A simplified up-down method (SUDO) for measuring mechanical nociception in rodents using von Frey filaments, 10 MOL. PAIN 26 (2014). A blinded investigator tested periorbital sensitivity before drug administration, and 45 min and 1.5 h after drug administration. Studies were conducted with n=13-22.

`CC[C@H](NC(=O)c1c(OCC(=O)O)c(-c2ccccc2)nc2ccccc12)c1ccccc1` [SB 235375] was tested, and the “mean LH value” ([1]; 30 mg/kg PO, 0 min (baseline)) was 31.6 ng/mL, the “mean LH value” ([1]; 30 mg/kg PO, 30 min) was 33.4 ng/mL and the “mean LH value” ([1]; 30 mg/kg PO, 90 min) was 35.8 ng/mL. For the same compound, the “mean LH value” ([1]; 30 mg/kg PO, 150 min) was 30.4 ng/mL, the “increase in LH levels” value ([1]; 30 mg/kg, 30 minutes) was “~+4%” and the “increase in LH levels” value ([1]; 30 mg/kg, 90 minutes) was “~+13%”. The “reduction in LH levels compared to vehicle” value (“reduction … to vehicle” below) ([1]; 30 mg/kg, 150 minutes) was “roughly 4%”, the “mean LH value” ([1]; 100 mg/kg PO, 0 min (baseline)) was 34.7 ng/mL and the “mean LH value” ([1]; 100 mg/kg PO, 30 min) was 25.7 ng/mL. The “mean LH value” ([1]; 100 mg/kg PO, 90 min) was 29.7 ng/mL, the “mean LH value” ([1]; 100 mg/kg PO, 150 min) was 31.1 ng/mL and the “reduction in LH levels” value ([1]; 30 minutes) was “roughly 26%”. The “reduction in LH levels” value ([1]; 90 minutes) was ~14%, the “reduction in LH levels” value ([1]; 150 minutes) was ~10% and the “LH levels compared to the vehicle-treated group” value ([1]; 30 and 100 mg/kg) was “did not exhibit a significant difference”. For the same compound, the “pain (periorbital) threshold” value ([2]; GTN + 30 and 100 mg/kg PO, 45, 90 minutes, vs GTN and vehicle) was “higher pain thresholds”.

`Cc1nsc(-c2nnc3n2CCN(C(=O)c2ccc(F)cc2)[C@@H]3C)n1` [fezolinetant] was tested, and the “mean LH value” ([1]; 30 mg/kg PO, 0 min (baseline)) was 37.3 ng/mL, the “mean LH value” ([1]; 30 mg/kg PO, 30 min) was 15.2 ng/mL and the “mean LH value” ([1]; 30 mg/kg PO, 90 min) was 6.1 ng/mL. The “mean LH value” ([1]; 30 mg/kg PO, 150 min) was 5.5 ng/mL, the “reduction … to vehicle” value ([1]; 30 mg/kg, 30 minutes) was “approximately 60%” and the “reduction … to vehicle” value ([1]; 30 mg/kg, 90 minutes) was “roughly 85%”. The “reduction … to vehicle” value ([1]; 30 mg/kg, 150 minutes) was “roughly 85%”, the LH serum concentrations ([1]; 30 mg/kg, all measured time points (30, 90, and 150 min)) was “significantly reduced” and the “withdrawal (periorbital) threshold” value ([2]; GTN + 30 mg/kg PO, 90 min timepoint, vs saline+vehicle or GTN+vehicle) was “significantly higher”. The “withdrawal (periorbital) threshold” value ([2]; GTN + 100 mg/kg PO, both timepoints (45 min, 1.5 h), vs each control group) was “significantly higher”.
